The target in one data set is PARP2 (Homo sapiens, UniProt Q9UGN5). As to the kind of experiment: PARP enzyme assay (PARP2). It counts as biochemical. The source says: Step 2: Ribosylation Reaction
A further data set deals with PAR in UWB 1.289 cells. As to the kind of experiment: PAR inhibition in UWB 1.289 cells (western blot). It counts as cell-based, human. The following applies: for PAR % inhibition in UWB 1.289 @ 10 nM: 0.01 µM; for inhibition at 0.01 µM: Homo sapiens. As to the method:
Example-3 UWB 1.289 cells were plated at a predetermined density in a 6-well plate in its respective media and plates were incubated at 37° C. and 5% CO2 overnight. After overnight incubation, the plates were treated with desired concentrations of the compound or DMSO and the plates were incubated at 37° C. and 5% CO2 as required for 24 hours. After completion of 24 hours incubation, total cell lysates were prepared from the treated samples. Lysates were analysed by western-blot analysis and probed with Human PAR specific monoclonal antibody or human specific beta-actin monoclonal antibody (loading control). Western-blot images were developed after exposing them to chemiluminescent substrate and images were captured on imaging system. Target specific bands and loading specific bands were measured using densitometric analysis. Densitometric values of target specific bands were normalized to loading control values. % inhibition of PAR was calculated relative to DMSO treated samples. Results: % inhibitions values are given below in Table-2: […]
On the technique in general: A western blot detects proteins with antibodies after separation by electrophoresis.

The target of a further data set is PARP1 (Homo sapiens, UniProt P09874). As to the kind of experiment: PARP enzyme assay (PARP1, chemiluminescent histone ribosylation). The note with it: for % inhibition 10 nM / % inhibition 100 nM: PARP enzyme assay; for % inhibition 10 nM: 10 nM compound; for % inhibition 100 nM: 100 nM compound; for IC50: read-out: IC50 (nM)-PARP1.
[1] abbreviates: UWB 1.289 cells, 10 nM, 24 hours, western blot relative to DMSO.
Setting [2] is: read-out: % inhibition 100 nM, PARP enzyme assay, 100 nM compound.
Where [3] appears, read: UWB1289, 24 h, read-out: PAR % inhibition in UWB 1.289 @ 10 nM, UWB 1.289 cells, 10 nM, 24 hours, western blot relative to DMSO.
The mark [4] stands for this setting: UWB1289, read-out: PAR % inhibition in UWB 1.289 @ 10 nM, UWB 1.289 cells, 10 nM, 24 hours, western blot relative to DMSO.

SMILES strings stand for the structures. pIC50: −log10 of the molar value. Read-outs that look alike come from different tables or passages of the source. A value given as a limit tells only on which side of the number the result lay.

PARP1, sequence (P09874 whole entry, species assumed): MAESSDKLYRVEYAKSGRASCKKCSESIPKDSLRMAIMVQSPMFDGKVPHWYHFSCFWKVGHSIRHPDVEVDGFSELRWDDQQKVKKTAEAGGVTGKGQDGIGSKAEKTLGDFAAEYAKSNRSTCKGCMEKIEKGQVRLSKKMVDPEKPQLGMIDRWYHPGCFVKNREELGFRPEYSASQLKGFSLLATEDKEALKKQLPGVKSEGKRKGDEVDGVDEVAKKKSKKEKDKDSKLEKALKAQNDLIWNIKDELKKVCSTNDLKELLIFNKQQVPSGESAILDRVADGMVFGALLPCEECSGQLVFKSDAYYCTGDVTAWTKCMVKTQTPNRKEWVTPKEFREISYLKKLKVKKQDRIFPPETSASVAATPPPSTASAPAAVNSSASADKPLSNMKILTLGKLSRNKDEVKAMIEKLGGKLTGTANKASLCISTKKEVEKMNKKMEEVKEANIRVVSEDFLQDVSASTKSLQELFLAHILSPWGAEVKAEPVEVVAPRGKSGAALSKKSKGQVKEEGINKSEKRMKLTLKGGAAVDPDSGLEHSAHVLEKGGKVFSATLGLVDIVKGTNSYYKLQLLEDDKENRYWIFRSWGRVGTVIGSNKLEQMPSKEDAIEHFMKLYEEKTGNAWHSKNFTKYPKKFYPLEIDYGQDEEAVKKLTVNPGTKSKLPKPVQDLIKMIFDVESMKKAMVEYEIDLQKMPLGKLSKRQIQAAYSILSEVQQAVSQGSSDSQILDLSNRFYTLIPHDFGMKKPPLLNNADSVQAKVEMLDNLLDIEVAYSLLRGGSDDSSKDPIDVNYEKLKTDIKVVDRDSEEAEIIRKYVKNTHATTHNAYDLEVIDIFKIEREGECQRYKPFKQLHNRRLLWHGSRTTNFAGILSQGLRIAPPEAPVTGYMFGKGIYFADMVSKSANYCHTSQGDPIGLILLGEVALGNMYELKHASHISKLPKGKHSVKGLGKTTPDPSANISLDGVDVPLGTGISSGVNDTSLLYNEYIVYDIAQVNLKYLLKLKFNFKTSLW
PARP2, sequence (Q9UGN5 whole entry, species assumed): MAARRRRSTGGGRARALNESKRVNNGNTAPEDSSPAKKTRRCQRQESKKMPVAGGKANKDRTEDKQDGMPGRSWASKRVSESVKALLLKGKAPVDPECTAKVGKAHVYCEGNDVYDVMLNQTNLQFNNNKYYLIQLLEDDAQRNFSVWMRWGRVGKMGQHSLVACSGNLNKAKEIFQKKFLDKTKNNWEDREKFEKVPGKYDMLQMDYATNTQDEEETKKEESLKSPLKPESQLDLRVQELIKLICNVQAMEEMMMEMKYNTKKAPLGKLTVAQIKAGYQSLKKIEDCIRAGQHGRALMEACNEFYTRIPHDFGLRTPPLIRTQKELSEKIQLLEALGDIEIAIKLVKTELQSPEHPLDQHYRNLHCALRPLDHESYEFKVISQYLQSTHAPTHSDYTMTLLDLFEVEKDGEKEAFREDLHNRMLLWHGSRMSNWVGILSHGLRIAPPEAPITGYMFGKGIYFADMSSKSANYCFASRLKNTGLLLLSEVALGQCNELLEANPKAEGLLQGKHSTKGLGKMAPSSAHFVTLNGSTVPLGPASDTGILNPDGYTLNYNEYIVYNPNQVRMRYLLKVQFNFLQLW
Description for PARP1: 1) Coat 25 µL of histone solution onto a 384-well plate as described below: • Dilute 5x histone mixture 1:5 with PBS. • Add 25 µL of diluted histone solution to each well and incubate at 4° C. overnight. • Wash the plate three times using 100 µL PBST buffer (1x PBS containing 0.05% Tween20) per well. • Tap plate onto clean paper towel to remove liquid. • Block the wells by adding 100 µL of Blocking buffer 3 to every well. Incubate at room temperature for 1 h 15 minutes. • Wash plate three times with 100 µL PBST buffer as described above. • Tap plate onto clean paper towel to remove liquid.
1) Preparation of 1X PARP Buffer: • Prepare 1x PARP buffer by adding 1 part of 10x PARP buffer to 9 parts distilled water (v/v). To prepare 500 µL of 1X PARP buffer, add 50 µL 10X PARP Assay buffer to 450 µL of H2O and mix well.
2) Preparation of the Ribosylation master mixture: • N wells x (1.25 µL 10x PARP buffer + 1.25 µL 10X PARP Assay mixture + 2.5 µL Activated DNA + 7.5 µL distilled water). Add 12.5 µL to every well.
3) Preparation of the inhibitor solution: • 10 mM stock solution of the inhibitor was prepared in DMSO. From 10 mM stock solution, 250X concentrations of the inhibitor were made in DMSO. • 250X DMSO concentrations of the inhibitor were further diluted to 10X concentrations in 1X kinase buffer. • 2.5 µL (10X concentrations) of kinase buffer containing inhibitor was added to each well. • For the “Positive Control” and “Blank”, add 2.5 µL of kinase buffer containing DMSO (4%) was added. • The final DMSO concentration in the well was 0.4 %.
4) Preparation of the enzyme solution: • Thaw PARP1 enzyme on ice. Upon first thaw, briefly spin tube containing enzyme to recover full content of the tube. Calculate the amount of PARP1 required for the assay and dilute enzyme to 2.0 ng/µL with 1x PARP buffer. • Initiate reaction by adding 10 µL of diluted PARP1 enzyme to the wells designated “Positive Control” and “Test Inhibitor”. • To the wells designated as “Blank”, add 10 µL of 1X PARP buffer. • Centrifuge the plate at 1000 rpm for 30 seconds and incubate at room temperature for 60 min. • Discard the reaction mixture after 1 hour, and wash plate three times with 100 µL PBST buffer and tap plate onto clean paper towel as described above.
1) Preparation of Streptavidin-HRP: • Dilute Streptavidin-HRP 1:50 in Blocking buffer. • Add 25 µL of diluted Streptavidin-HRP to each well. Incubate for 30 min. at room temperature. • Wash three times with 100 µL PBST buffer and tap plate onto clean paper towel as above as described above.
2) Preparation of ECL substrate: • Just before use, mix on ice equal amounts of ELISA ECL Substrate A and ELISA ECL Substrate B and add 50 µL per well. • Immediately read the plate in microtiter-plate in Chemiluminescence setting. The “Blank” value is subtracted from all other values.

The IC50 is the concentration that gives 50% inhibition. What is called melting point is the temperature, or range, at which the solid turns liquid. For the compound `CC1(O)C(=O)N(c2cncc(Cc3n[nH]c(=O)c4cc(F)ccc34)c2)c2ccccc21` (single isomer, unassigned; (+)) [Example 7, (+)-7-Fluoro-4-((5-(3-hydroxy-3-methyl-2-oxoindolin-1-yl)pyridin-3-yl)methyl)phthalazin-1(2H)-one], the melting point lay in the range of 148 to 151 °C. Also, at PARP2, the IC50 was below 10 nM. Further, the “PAR % inhibition in UWB 1.289 @ 10 nM” value with PAR in UWB 1.289 cells (setting [1]) is given as “A (A represents >75% to 100%)”.
The pIC50 is the negative decadic logarithm of the IC50, by convention in mol/L. The term inhibition denotes the share of the control response that was lost under treatment. In turn, `CC1(O)C(=O)N(c2cncc(Cc3n[nH]c(=O)c4cc(F)ccc34)c2)c2ccc(F)cc21` (single isomer, unassigned; (+)) [Example 11, (+)-7-Fluoro-4-((5-(5-fluoro-3-hydroxy-3-methyl-2-oxoindolin-1-yl)pyridin-3-yl)methyl)phthalazin-1(2H)-one] registered a melting point of 148 to 151 °C. Further, at PARP2, the IC50 was below 10 nM. Further, the “PAR % inhibition in UWB 1.289 @ 10 nM” value in the data set on PAR in UWB 1.289 cells (setting [1]) is “A (A represents >75% to 100%)”. The pIC50 on PARP1 was above 8.00. The inhibition at 0.01 µM at PARP1 (read-out: % inhibition 10 nM, PARP enzyme assay, 10 nM compound) was 75 to 100%. At PARP1 (setting [2]), the inhibition at 0.1 µM was in the range of 75 to 100%.
In turn, `CC1(O)C(=O)N(c2cncc(Cc3n[nH]c(=O)c4ccccc34)c2)c2ccc(F)cc21` (single isomer, unassigned; (+)) [Example 14, (+)-4-((5-(5-Fluoro-3-hydroxy-3-methyl-2-oxoindolin-1-yl)pyridin-3-yl)methyl)phthalazin-1(2H)-one] displayed a melting point of 198 to 201 °C. The IC50 at PARP2 is below 10 nM. The “PAR % inhibition in UWB 1.289 @ 10 nM” value in the data set with PAR in UWB 1.289 cells (setting [1]) is reported as “A (A represents >75% to 100%)”. This compound showed a pIC50 at PARP1 above 8.00. Besides, the “% inhibition 10 nM” value on PARP1 (0.01 µM) was “B (B represents >50% to ≤75%)”. Moreover, at PARP1 (setting [2]), the inhibition at 0.1 µM lay in the range of 75 to 100%.
The compound `CC1(O)C(=O)N(c2cc(Cc3n[nH]c(=O)c4ccccc34)ccn2)c2ccccc21` (single isomer, unassigned; (+)) [Example 20, (+)-4-((2-(3-Hydroxy-3-methyl-2-oxoindolin-1-yl)pyridin-4-yl)methyl)phthalazin-1(2H)-one] yielded a melting point of 205 to 208 °C. This compound registered an IC50 against PARP2 below 10 nM. The inhibition at 0.01 µM in the data set on PAR in UWB 1.289 cells (setting [3]) is 50 to 75%. Also, at PARP1, the “% inhibition 10 nM” value is given as “A (A represents >75% to 100%)”, the “% inhibition 100 nM” value was “A (A represents >75% to 100%)” and the concentration for half-maximal inhibition (IC50) is below 10 nM.
With `CC1(O)C(=O)N(c2cc(Cc3n[nH]c(=O)c4cc(F)ccc34)ccn2)c2ccccc21` (single isomer, unassigned; (+)) [Example 23, (+)-7-Fluoro-4-((2-(3-hydroxy-3-methyl-2-oxoindolin-1-yl)pyridin-4-yl)methyl)phthalazin-1(2H)-one], the melting point was 167 to 170 °C. The compound also gave an IC50 against PARP2 below 10 nM. In addition, the “PAR % inhibition in UWB 1.289 @ 10 nM” value in the data set with PAR in UWB 1.289 cells (setting [1]) is given as “D (D represents ≤25%)”.
On the same counts, the results for `CC1(O)C(=O)N(c2cncc(Cc3n[nH]c(=O)c4cc(F)ccc34)c2)c2ccccc21` (single isomer, unassigned; (-)) [Example 8, (-)-7-Fluoro-4-((5-(3-hydroxy-3-methyl-2-oxoindolin-1-yl)pyridin-3-yl)methyl)phthalazin-1(2H)-one] are 138 to 141 °C, below 10 nM and “C (C represents >25% to ≤50%)”.
`CC1(O)C(=O)N(c2cncc(Cc3n[nH]c(=O)c4cc(F)ccc34)c2)c2ccc(F)cc21` (single isomer, unassigned; (-)) [Example 12, (-)-7-Fluoro-4-((5-(5-fluoro-3-hydroxy-3-methyl-2-oxoindolin-1-yl)pyridin-3-yl)methyl)phthalazin-1(2H)-one] registered a melting point of 154 to 157 °C. This compound also yielded a 50% inhibitory concentration (IC50) on PARP2 below 10 nM. In the data set on PAR in UWB 1.289 cells (setting [1]), the “PAR % inhibition in UWB 1.289 @ 10 nM” value is reported as “D (D represents ≤25%)”. Also, at PARP1, the “% inhibition 10 nM” value is “A (A represents >75% to 100%)”, the “% inhibition 100 nM” value is “A (A represents >75% to 100%)” and the IC50 was below 10 nM.
`CC1(O)C(=O)N(c2cncc(Cc3n[nH]c(=O)c4ccccc34)c2)c2ccc(F)cc21` (single isomer, unassigned; (-)) [Example 15, (-)-4-((5-(5-Fluoro-3-hydroxy-3-methyl-2-oxoindolin-1-yl)pyridin-3-yl)methyl)phthalazin-1(2H)-one] gave a melting point of 197 to 200 °C. Also, the IC50 against PARP2 was below 10 nM. Besides, in the data set on PAR in UWB 1.289 cells (setting [1]), the “PAR % inhibition in UWB 1.289 @ 10 nM” value was “D (D represents ≤25%)”. The “% inhibition 10 nM” value at PARP1 (0.01 µM) is “A (A represents >75% to 100%)”. Further, at PARP1, the “% inhibition 100 nM” value is on record as “A (A represents >75% to 100%)” and the IC50 is below 10 nM.
Consider `CC1(O)C(=O)N(c2cc(Cc3n[nH]c(=O)c4cc(F)ccc34)ccn2)c2ccccc21` (single isomer, unassigned; (-)) [Example 22, (-)-7-Fluoro-4-((2-(3-hydroxy-3-methyl-2-oxoindolin-1-yl)pyridin-4-yl)methyl)phthalazin-1(2H)-one], for which the melting point lay in the range of 165 to 168 °C. The compound also yielded an IC50 at PARP2 below 10 nM. Further, the inhibition at 0.01 µM with PAR in UWB 1.289 cells (setting [3]) fell in the range of 25 to 50%.
For `CC1(O)C(=O)N(c2cncc(Cc3n[nH]c(=O)c4ccccc34)c2)c2ccccc21` (centres unmarked) [Example 1, 4-((5-(3-Hydroxy-3-methyl-2-oxoindolin-1-yl)pyridin-3-yl)methyl)phthalazin-1(2H)-one], the melting point lay in the range of 110 to 113 °C. This compound had an IC50 at PARP2 below 10 nM. In addition, the inhibition at 0.01 µM in the data set on PAR in UWB 1.289 cells (setting [4]) was in the range of 50 to 75%. This compound had a pIC50 on PARP1 above 8.00. Besides, the inhibition at 0.01 µM at PARP1 (read-out: % inhibition 10 nM) is 75 to 100%. Besides, on PARP1 (read-out: % inhibition 100 nM), the inhibition at 0.1 µM lay within 75 to 100%.
`C[C@]1(O)C(=O)N(c2cncc(Cc3n[nH]c(=O)c4ccccc34)c2)c2ccccc21` [Example 2, (R)-(+)-4-((5-(3-Hydroxy-3-methyl-2-oxoindolin-1-yl)pyridin-3-yl)methyl)phthalazin-1(2H)-one]: the IC50 against PARP2 is below 10 nM. Moreover, the inhibition at 0.01 µM in the data set on PAR in UWB 1.289 cells (setting [3]) fell in the range of 75 to 100%. At PARP1, the pIC50 was above 8.00.
The compound `C[C@@]1(O)C(=O)N(c2cncc(Cc3n[nH]c(=O)c4ccccc34)c2)c2ccccc21` [Example 3, (S)-(-)-4-((5-(3-Hydroxy-3-methyl-2-oxoindolin-1-yl)pyridin-3-yl)methyl)phthalazin-1(2H)-one] had a melting point of 94 to 97 °C. On PARP2, this compound had an IC50 below 10 nM. For the same compound, the inhibition at 0.01 µM in the data set with PAR in UWB 1.289 cells (setting [3]) is below 25%. In addition, the pIC50 at PARP1 was above 8.00.
In the case of `CC1(O)C(=O)N(c2cc(Cc3n[nH]c(=O)c4cc(F)ccc34)ccn2)c2ccccc21` (centres unmarked) [Example 21, 7-Fluoro-4-((2-(3-hydroxy-3-methyl-2-oxoindolin-1-yl)pyridin-4-yl)methyl)phthalazin-1(2H)-one], the melting point fell in the range of 187 to 189 °C. Further, the IC50 against PARP2 was above 10 nM. The inhibition at 0.01 µM in the data set on PAR in UWB 1.289 cells (setting [4]) is 25 to 50%.
Turning to `CC1(O)C(=O)N(c2cc(Cc3n[nH]c(=O)c4cc(F)ccc34)ccn2)c2ccc(F)cc21` (centres unmarked) [Example 24, 7-Fluoro-4-((2-(5-fluoro-3-hydroxy-3-methyl-2-oxoindolin-1-yl)pyridin-4-yl)methyl)phthalazin-1(2H)-one], the melting point is 225 to 228 °C. The 50% inhibitory concentration (IC50) against PARP2 is below 10 nM. Also, the inhibition at 0.01 µM in the data set on PAR in UWB 1.289 cells (setting [4]) lay in the range of 25 to 50%. At PARP1, this compound had a pIC50 above 8.00.
`O=C1N(c2cncc(Cc3n[nH]c(=O)c4ccccc34)c2)c2ccccc2C1(O)C(F)(F)F` (centres unmarked) [Example 25, 4-((5-(3-Hydroxy-2-oxo-3-(trifluoromethyl)indolin-1-yl)pyridin-3-yl)methyl)phthalazin-1(2H)-one]: the melting point lay within 258 to 260 °C. In addition, on PARP2, the IC50 was below 10 nM. In addition, in the data set on PAR in UWB 1.289 cells (setting [4]), the inhibition at 0.01 µM lay within 25 to 50%. Moreover, the pIC50 at PARP1 was above 8.00. For the same compound, the inhibition at 0.01 µM on PARP1 (read-out: % inhibition 10 nM) lay in the range of 75 to 100%. Moreover, the inhibition at 0.1 µM at PARP1 (read-out: % inhibition 100 nM) was in the range of 75 to 100%.

The values above are taken from patent US20230234938A1 (RHIZEN PHARMACEUTICALS AG, priority 2020, published 2023).
